Measured values reported in patent US5476661A, “Compositions for topical application to skin, hair and nails” (Elizabeth Arden Co., Division of Conopco, Inc., priority 1994, dated 1995).
Entries after “also recorded” stand apart in the source; their conditions may differ. Where two headings read alike, the source gives them in different places. Blank lines part the entries; values can stand above or below the compound they belong to.

Assays:
[1] = cited from earlier work
keratinocytes [2] = conditions: Bikle et al., cited from earlier work; for conversion in skin / keratinocytes: MacLaughlin et al.
[3] = system: normal human keratinocytes; experiment: Vitamin D3 metabolites' uptake by keratinocytes (cell associated radioactivity); type: in vitro ADME; conditions: for Uptake by keratinocytes, cell associated radioactivity: 60 picomolar, mean of duplicate; for uptake rate by keratinocytes / skin cells: Table 6 summary
Description: Normal human keratinocytes were grown to confluence in Keratinocyte growth medium (KGM) containing 0.15 mM calcium. Medium was changed to fresh medium. The cells were then incubated in duplicate with 10,000 cpm (60 picomolar, or 25 picogram/ml medium) of 25-OH-D3 or 1,25-(OH)2 D3 for various times (0 to 240 minutes). At different time intervals indicated in the Table below, the medium of appropriate wells were aspirated, and the wells were washed three times with a 0.2% bovine serum albumin solution in 50 mM Tris/0.15M sodium chloride buffer pH 7.4. After the wash the cells in the wells were dissolved in 0.1N sodium hydroxide, neutralized with 0.1N hydrochloric acid, mixed with 5 ml of scintillation fluid (Ecolume) and counted in a beta counter. The amount of cpm associated with the cells was calculated as the percent of total cpm added for each time point studied. Data in the table is expressed as cell associated radioactivity as % of total added. Each reported result is a mean of duplicate determinations.

[4] = system: normal human keratinocytes; experiment: DNA synthesis rate (3H-thymidine incorporation) in normal human keratinocytes; type: cell-based
From the text: Initiation of differentiation of keratinocytes is accompanied by inhibition of their growth. The rate of synthesis of DNA determined by the incorporation of radiolabeled substrate [^3 H] thymidine, is an indicator of the rate of growth of the cells. A decrease in DNA synthesis therefore indicates decrease in growth and increase in differentiation of keratinocytes.
Methodology Used for Determining the Rate of DNA Synthesis in Keratinocytes After Treatment With Various Actives
1. Normal human keratinocytes isolated from neonatal foreskins by trypsin treatment were grown in DME medium/10% fetal calf serum in the presence of irradiated 3T3 mouse fibroblasts for establishing dividing keratinocyte colonies. Keratinocytes were grown under the above condition until their third passage.
2. For the experiments, third passage keratinocytes were plated into a serum-free keratinocyte growth medium (KGM; obtained from Clonetics Corporation, San Diego, Calif.) containing 0.15 mM calcium. 20,000 to 30,000 cells were plated into each well of 24 well cell culture plates and grown for 5 days, until the cells reach about 80% confluence.
3. Medium was changed to fresh medium and the various test materials were added to the medium from an ethanolic stock solution (10 A.M.). The final ethanol concentration in the cultures was kept below 0.2%. Control cultures received no tested material but were dosed with 0.2% ethanol. Each compound or combination was tested in three separate wells. By 4 P.M., 1 uCi of ^3 H-thymidine (AmerSham Corp., Sp activity 40 Ci/mmol) was added to the 1 ml medium in each well. The cells were incubated overnight and 24 hours later (10 A.M. next day) the amount of ^3 H-thymidine associated with the cellular DNA of keratinocytes was assessed as described below.
4. The medium was aspirated, and the wells washed with 1 ml phosphate-buffered saline. The DNA and proteins of the cells in the plate were then precipitated by adding 1 ml of ice-cold 10% trichloroacetic acid (TCA). The plates were left on ice for 30 minutes to complete the precipitation process. TCA was then aspirated and each well was then washed four times with 5% TCA. The plates were then dried on a filter pad and the cells in the wells were dissolved in 0.5 ml of 0.1N sodium hydroxide. The sodium hydroxide was then neutralized using 0.1N hydrochloric acid and the solution (1 ml total volume) was then transferred to a scintillation vial. 100 ul samples from each vial were used for protein assay using BCA protein assay reagent obtained from Pierce Chemical Company. 8 ml of a scintillation fluid (Ecolume) was added to the rest of the solution in the vial, and the vials were counted in a scintillation counter to determine the amount of radioactivity in each vial. The DNA synthesis rate was then calculated as cpm ^3 H thymidine incorporated into total cellular DNA/microgram of cell protein for each individual well. Mean and standard deviation for each group was also calculated.
5. All lipids listed in Tables 1-5 below were synthesized in-house. 25-OH-D3 and 1,25-(OH)2 D3 were obtained from Hoffman La Roche. Vitamin D3 was obtained from Sigma.

keratinocytes [5] = conditions: cited from earlier work
[6] = system: HL-60 cells (human myelocytic leukemia cells); conditions: cited from earlier work
[7] = Homo sapiens, Keratinocyte, Table 5, 3 μM lipid, 0 nM 25-OH-D3, * = statistically significant growth inhibition

SMILES: C=C1/C(=C\C=C2/CCC[C@]3(C)[C@@H]([C@H](C)CCCC(C)(C)O)CC[C@@H]23)C[C@@H](O)C[C@@H]1O [1,25-(OH)2 D3, 1,25-dihydroxycholecalciferol]
toxicity of higher blood levels ([1]; higher levels of 1,25-(OH)2 D3 in blood): increase blood calcium levels and may cause heart problems, muscle weakness and contraction which may be fatal
blood level after topical application ([1]; in vivo): increases blood level of 1,25-(OH)2 D3
catabolism to inactive metabolites by keratinocytes (keratinocytes [2]): catabolized to inactive metabolites rapidly
degradation within skin cells (keratinocytes [2]; exogenously added): rapidly degraded within the skin cells
Uptake by keratinocytes, cell associated radioactivity ([3]; 0 minutes): 0.8 % of total added
Uptake by keratinocytes, cell associated radioactivity ([3]; 2 minutes): 2.7 % of total added
Uptake by keratinocytes, cell associated radioactivity ([3]; 5 minutes): 4.2 % of total added
Uptake by keratinocytes, cell associated radioactivity ([3]; 10 minutes): 13.0 % of total added
Uptake by keratinocytes, cell associated radioactivity ([3]; 15 minutes): 10.0 % of total added
Uptake by keratinocytes, cell associated radioactivity ([3]; 30 minutes): 20.0 % of total added
Uptake by keratinocytes, cell associated radioactivity ([3]; 60 minutes): 15.6 % of total added
Uptake by keratinocytes, cell associated radioactivity ([3]; 120 minutes): 26.2 % of total added
Uptake by keratinocytes, cell associated radioactivity ([3]; 240 minutes): 30.8 % of total added
uptake rate by keratinocytes / skin cells [3]: rapidly taken up
activity at 0.001 µM ([4]; Homo sapiens, Keratinocyte, read-out: DNA synthesis of keratinocytes, Table 1, compound alone, 1 nM, Test 1): 115 ± 7.7%
activity at 0.01 µM ([4]; Homo sapiens, Keratinocyte, read-out: DNA synthesis of keratinocytes, Table 1, compound alone, 10 nM, Test 1): 108 ± 8.7%
activity at 0.01 µM ([4]; Homo sapiens, Keratinocyte, read-out: DNA synthesis of keratinocytes, Table 1, compound alone, 10 nM, Test 2): 91.9 ± 5.3%
activity at 0.01 µM ([4]; Homo sapiens, Keratinocyte, read-out: DNA synthesis of keratinocytes, Table 1, compound alone, 10 nM, Test 3): 91.8 ± 4.5%
activity at 0.1 µM ([4]; Homo sapiens, Keratinocyte, read-out: DNA synthesis of keratinocytes, Table 1, compound alone, 100 nM, Test 1, * = statistically significant growth inhibition): 102 ± 16.7%
activity at 0.1 µM ([4]; Homo sapiens, Keratinocyte, read-out: DNA synthesis of keratinocytes, Table 1, compound alone, 100 nM, Test 2, * = statistically significant growth inhibition): 86 ± 7.7%
activity at 0.1 µM ([4]; Homo sapiens, Keratinocyte, read-out: DNA synthesis of keratinocytes, Table 1, compound alone, 100 nM, Test 3): 90.3 ± 9.5%
activity at 1 µM ([4]; Homo sapiens, Keratinocyte, read-out: DNA synthesis of keratinocytes, Table 1, compound alone, 1000 nM, Test 1, * = statistically significant growth inhibition): 71.5 ± 2.9%
activity at 1 µM ([4]; Homo sapiens, Keratinocyte, read-out: DNA synthesis of keratinocytes, Table 1, compound alone, 1000 nM, Test 2, * = statistically significant growth inhibition): 56.3 ± 14.1%
activity at 0.01 µM ([4]; Homo sapiens, Keratinocyte, read-out: DNA synthesis of keratinocytes, Table 4, 10 nM vitamin D3 or metabolite, no ceramide): 91.8 ± 4.6%
activity at 0.1 µM ([4]; Homo sapiens, Keratinocyte, read-out: DNA synthesis of keratinocytes, Table 4, 100 nM vitamin D3 or metabolite, no ceramide): 90.3 ± 9.5%
minimal effective concentration ([4]; Homo sapiens, Keratinocyte, read-out: concentration at which statistically significant cell growth inhibition was consistently observed): 1 µM
effect on DNA synthesis and differentiation of keratinocytes (keratinocytes [5]; exogenous or endogenous, Pillai et al., Hashimoto et al.): inhibits DNA synthesis (i.e., inhibits growth) and induces differentiation of keratinocytes

SMILES: CCCCCCCCCCCCC/C=C/C(O)C(CO)NC(C)=O (stereo not drawn) [Ceramide (Formula A)]
activity at 0.3 µM ([4]; Homo sapiens, Keratinocyte, Table 2, ceramide alone, 0.3 μM, Test 3): 146 ± 21%
activity at 1 µM ([4]; Homo sapiens, Keratinocyte, Table 2, ceramide alone, 1.0 μM, Test 1, read-out: DNA synthesis of keratinocytes): 115 ± 11%
activity at 1 µM ([4]; Homo sapiens, Keratinocyte, Table 2, ceramide alone, 1.0 μM, Test 2, read-out: DNA synthesis of keratinocytes): 83.1 ± 6%
activity at 3 µM ([4]; Homo sapiens, Keratinocyte, Table 2, ceramide alone, 3.0 μM, Test 3): 112 ± 13%
activity at 10 µM ([4]; Homo sapiens, Keratinocyte, Table 2, ceramide alone, Test 1): 105 ± 22.4%
activity at 10 µM ([4]; Homo sapiens, Keratinocyte, Table 2, ceramide alone, Test 2, * = statistically significant growth inhibition): 69.9 ± 10%
activity at 10 µM ([4]; Homo sapiens, Keratinocyte, Table 2, ceramide alone, Test 3, * = statistically significant growth inhibition): 66 ± 14%
activity at 3 µM ([4]; Homo sapiens, Keratinocyte, Table 4, 3.0 μM ceramide, 0 vitamin D3 or metabolite (ethanol vehicle only)): 87.9 ± 0.8%
activity at 3 µM [4, 7]: 88 ± 0.8%
minimal effective concentration ([4]; Homo sapiens, Keratinocyte, Table 2 summary, only at the highest concentration, 2 out of 3 experiments, read-out: concentration at which statistically significant growth inhibition occurred): 10 µM

Uptake by keratinocytes, cell associated radioactivity ([3]; 0 minutes): 2.5 % of total added
Uptake by keratinocytes, cell associated radioactivity ([3]; 2 minutes): 3.2 % of total added
Uptake by keratinocytes, cell associated radioactivity ([3]; 5 minutes): 0.3 % of total added
Uptake by keratinocytes, cell associated radioactivity ([3]; 10 minutes): 3.4 % of total added
Uptake by keratinocytes, cell associated radioactivity ([3]; 15 minutes): 8.3 % of total added
Uptake by keratinocytes, cell associated radioactivity ([3]; 30 minutes): 8.1 % of total added
Uptake by keratinocytes, cell associated radioactivity ([3]; 60 minutes): 6.2 % of total added
Uptake by keratinocytes, cell associated radioactivity ([3]; 120 minutes): 6.8 % of total added
Uptake by keratinocytes, cell associated radioactivity ([3]; 240 minutes): 9.8 % of total added
SMILES: C=C1CC[C@H](O)C/C1=C/C=C1\CCC[C@]2(C)[C@@H]([C@H](C)CCCC(C)(C)O)CC[C@@H]12 [Formula 25-OH--D3, 25-hydroxycholecalciferol]
conversion in skin / keratinocytes (keratinocytes [2]): converted to 1,25-(OH)2 D3 in keratinocyte cultures
uptake rate by keratinocytes / skin cells [3]: slower uptake; also recorded: taken up by keratinocytes at a substantially slower rate than 1,25-(OH)2 D3
activity at 0.01 µM ([4]; Homo sapiens, Keratinocyte, Table 1, compound alone, 10 nM, Test 2, read-out: DNA synthesis of keratinocytes): 86.5 ± 9%
activity at 0.01 µM ([4]; Homo sapiens, Keratinocyte, Table 1, compound alone, 10 nM, Test 3, read-out: DNA synthesis of keratinocytes): 95.2 ± 6.8%
activity at 0.1 µM ([4]; Homo sapiens, Keratinocyte, Table 1, compound alone, 100 nM, Test 1, * = statistically significant growth inhibition, read-out: DNA synthesis of keratinocytes): 86.5 ± 5.4%
activity at 0.1 µM ([4]; Homo sapiens, Keratinocyte, Table 1, compound alone, 100 nM, Test 2, * = statistically significant growth inhibition, read-out: DNA synthesis of keratinocytes): 79.1 ± 2.6%
activity at 1 µM ([4]; Homo sapiens, Keratinocyte, Table 1, compound alone, 1000 nM, Test 2, * = statistically significant growth inhibition, read-out: DNA synthesis of keratinocytes): 78.9 ± 5.4%
activity at 0.001 µM ([4]; Homo sapiens, Keratinocyte, Table 3, 25-OH-D3 alone, 1 nM (second line), read-out: DNA synthesis of keratinocytes): 99.3 ± 1.91%
activity at 0.01 µM ([4]; Homo sapiens, Keratinocyte, Table 3, 25-OH-D3 alone, 10 nM, read-out: DNA synthesis of keratinocytes): 97.2 ± 5.92%
activity at 0.1 µM ([4]; Homo sapiens, Keratinocyte, Table 3, 25-OH-D3 alone, 100 nM, read-out: DNA synthesis of keratinocytes): 86.5 ± 5.47%
activity at 1 µM ([4]; Homo sapiens, Keratinocyte, Table 3, 25-OH-D3 alone, 1000 nM, read-out: DNA synthesis of keratinocytes): 67.8 ± 5.92%
activity at 0.001 µM ([4]; Homo sapiens, Keratinocyte, Table 3, 25-OH-D3 alone, first line, concentration printed as 1 nM, read-out: DNA synthesis of keratinocytes): 100 ± 4.71%
activity at 0.1 µM ([4]; Homo sapiens, Keratinocyte, Table 5, 100 nM 25-OH-D3, no ceramide, read-out: DNA synthesis of keratinocytes): 88.5 ± 7.2%
minimal effective concentration ([4]; Homo sapiens, Keratinocyte, read-out: concentration at which statistically significant cell growth inhibition was consistently observed, Table 1 summary, compound alone, only at this concentration): 1 µM

SMILES: CCCCCCCCCCCCCCC(O)CN(CCO)C(C)=O (stereo not drawn) [pseudoceramide (Formula C)]
activity at 3 µM [4, 7]: 51.4 ± 4%

SMILES: CC1=C(/C=C/C(C)=C/C=C/C(C)=C/C(=O)O)C(C)(C)CCC1 [retinoic acid]
HL-60 cell differentiation [6]: induces differentiation of HL-60 cells
keratinocyte differentiation (keratinocytes [5]): prevents differentiation of keratinocytes

SMILES: C=C1CC[C@H](O)C/C1=C/C=C1\CCC[C@]2(C)[C@@H]([C@H](C)CCCC(C)C)CC[C@@H]12 [vitamin D3]
conversion in skin / keratinocytes (keratinocytes [2]): nor is it converted in the skin to 25-OH-D3 derivative
statistically significant growth inhibition ([4]; Table 4 summary, vitamin D3 alone): does not show statistically significant growth inhibition
keratinocyte prodifferentiating activity (keratinocytes [5]; applied topically to skin, MacLaughlin et al.): neither has keratinocyte prodifferentiating activity
